Here are results for one compound from article PMC5218480 (PLoS ONE, 2017).

For the assay, the system named is MV-4-11 cells. The experiment in a line: Gene expression microarray analysis (Affymetrix PrimeView) and GSEA. The class given is cell-based, human. The settings on record: ProbeSet 11759095_at; LIST D. Further details: RFU PODN (11730768_x_at) / Fold change /veh PODN (11730768_x_at) / RFU LINC00158 (11744669_a_at) / Fold change /veh LINC00158 (11744669_a_at) / RFU DUSP10 (11751237_a_at) / Fold change /veh DUSP10 (11751237_a_at) / RFU ID3 (11757404_x_at) / Fold change /veh ID3 (11757404_x_at) / RFU PLEKHG5 (11737974_s_at) / Fold change /veh PLEKHG5 (11737974_s_at) / RFU LRRC4B (11730491_at) / Fold change /veh LRRC4B (11730491_at) / RFU GIMAP4 (11747438_a_at) / Fold change /veh GIMAP4 (11747438_a_at) / RFU KRT8 (11758183_x_at) / Fold change /veh KRT8 (11758183_x_at) / RFU CNN1 (11734310_a_at) / Fold change /veh CNN1 (11734310_a_at) / RFU VPS37D (11726825_at) / Fold change /veh VPS37D (11726825_at) / RFU C10orf10 (11716522_x_at) / Fold change /veh C10orf10 (11716522_x_at) / RFU KIR2DL2 /// KIR2DL4 /// KIR2DL5A /// KIR2DL5B /// KIR2DS1 /// KIR2DS2 /// KIR2DS3 /// KIR2DS4 /// KIR3DL3 /// KIR3DL3 /// KIR3DS1 (11738374_at) / Fold change /veh KIR2DL2 /// KIR2DL4 /// KIR2DL5A /// KIR2DL5B /// KIR2DS1 /// KIR2DS2 /// KIR2DS3 /// KIR2DS4 /// KIR3DL3 /// KIR3DL3 /// KIR3DS1 (11738374_at) / RFU C1QL1 (11718748_at) / Fold change /veh C1QL1 (11718748_at) / RFU TMPRSS4 (11747572_a_at) / Fold change /veh TMPRSS4 (11747572_a_at) / RFU HAMP (11756126_x_at) / Fold change /veh HAMP (11756126_x_at) / RFU RNFT2 (11725882_a_at) / Fold change /veh RNFT2 (11725882_a_at) / RFU NR4A2 (11747474_a_at) / Fold change /veh NR4A2 (11747474_a_at) / RFU ABCC12 (11746883_a_at) / Fold change /veh ABCC12 (11746883_a_at) / RFU TMEM136 (11760407_x_at) / Fold change /veh TMEM136 (11760407_x_at) / RFU CLDN22 /// WWC2 (11732394_at) / Fold change /veh CLDN22 /// WWC2 (11732394_at) / RFU HLA-DPB1 (11760878_x_at) / Fold change /veh HLA-DPB1 (11760878_x_at) / RFU SPINT1 (11716480_a_at) / Fold change /veh SPINT1 (11716480_a_at) / RFU GAP43 (11754022_s_at) / Fold change /veh GAP43 (11754022_s_at) / RFU A4GNT (11735810_at) / Fold change /veh A4GNT (11735810_at) / RFU PRB3 (11715151_x_at) / Fold change /veh PRB3 (11715151_x_at) / RFU TUBB4B (11761932_at) / Fold change /veh TUBB4B (11761932_at) / RFU CAPN14 (11732068_a_at) / Fold change /veh CAPN14 (11732068_a_at) / RFU TMCC2 (11721928_a_at) / Fold change /veh TMCC2 (11721928_a_at) / RFU IRGQ (11745062_a_at) / Fold change /veh IRGQ (11745062_a_at) / RFU FAM174B (11720279_a_at) / Fold change /veh FAM174B (11720279_a_at) / RFU TMPRSS4 (11748680_a_at) / Fold change /veh TMPRSS4 (11748680_a_at) / RFU FAM212B (11763350_a_at) / Fold change /veh FAM212B (11763350_a_at) / RFU PLEKHG5 (11743358_a_at) / Fold change /veh PLEKHG5 (11743358_a_at) / RFU ZSCAN30 (11745921_a_at) / Fold change /veh ZSCAN30 (11745921_a_at) / RFU CMKLR1 (11741424_a_at) / Fold change /veh CMKLR1 (11741424_a_at) / RFU LOC101060620 /// MAPK8IP1 (11723275_at) / Fold change /veh LOC101060620 /// MAPK8IP1 (11723275_at) / RFU SPTSSB (11747773_x_at) / Fold change /veh SPTSSB (11747773_x_at) / RFU PRSS12 (11739890_at) / Fold change /veh PRSS12 (11739890_at) / RFU BIN1 (11741810_x_at) / Fold change /veh BIN1 (11741810_x_at) / RFU WNT11 (11732464_a_at) / Fold change /veh WNT11 (11732464_a_at) / RFU C10orf10 (11716521_a_at) / Fold change /veh C10orf10 (11716521_a_at) / RFU C5orf56 (11738089_at) / Fold change /veh C5orf56 (11738089_at) / RFU CYB561 (11721691_x_at) / Fold change /veh CYB561 (11721691_x_at) / RFU ANKRD19P (11752326_a_at) / Fold change /veh ANKRD19P (11752326_a_at) / RFU OR2T12 /// OR2T33 /// OR2T8 (11738714_s_at) / Fold change /veh OR2T12 /// OR2T33 /// OR2T8 (11738714_s_at) / RFU VCAN (11748164_a_at) / Fold change /veh VCAN (11748164_a_at) / RFU JSRP1 (11732532_at) / Fold change /veh JSRP1 (11732532_at) / RFU KRTAP10-11 (11738290_x_at) / Fold change /veh KRTAP10-11 (11738290_x_at) / RFU MYO3A (11730013_a_at) / Fold change /veh MYO3A (11730013_a_at) / RFU EBF3 (11725865_a_at) / Fold change /veh EBF3 (11725865_a_at) / RFU CAMK2N1 (11719241_x_at) / Fold change /veh CAMK2N1 (11719241_x_at) / RFU C5orf56 (11738088_a_at) / Fold change /veh C5orf56 (11738088_a_at) / RFU OLFML3 (11715873_a_at) / Fold change /veh OLFML3 (11715873_a_at) / RFU LOC100653217 /// NTM (11731650_a_at) / Fold change /veh LOC100653217 /// NTM (11731650_a_at) / RFU MAPK11 (11762145_a_at) / Fold change /veh MAPK11 (11762145_a_at) / RFU FIZ1 (11724087_x_at) / Fold change /veh FIZ1 (11724087_x_at) / RFU OASL (11726364_x_at) / Fold change /veh OASL (11726364_x_at) / RFU SOX15 (11748057_x_at) / Fold change /veh SOX15 (11748057_x_at) / RFU CD79A (11719716_a_at) / Fold change /veh CD79A (11719716_a_at) / RFU HIST1H1D (11736915_at) / Fold change /veh HIST1H1D (11736915_at) / RFU CASKIN2 (11723855_a_at) / Fold change /veh CASKIN2 (11723855_a_at) / RFU LOC730098 (11760151_x_at) / Fold change /veh LOC730098 (11760151_x_at) / RFU OR4N2 (11742367_at) / Fold change /veh OR4N2 (11742367_at) / RFU PRRT2 (11749266_a_at) / Fold change /veh PRRT2 (11749266_a_at) / RFU SNX32 (11753110_a_at) / Fold change /veh SNX32 (11753110_a_at) / RFU CDHR5 (11726645_a_at) / Fold change /veh CDHR5 (11726645_a_at) / RFU RCAN1 (11760418_a_at) / Fold change /veh RCAN1 (11760418_a_at) / RFU FAM167A (11723789_a_at) / Fold change /veh FAM167A (11723789_a_at) / RFU FAM26E (11764081_at) / Fold change /veh FAM26E (11764081_at) / RFU ISYNA1 (11749810_s_at) / Fold change /veh ISYNA1 (11749810_s_at) / RFU ACY1 (11761880_at) / Fold change /veh ACY1 (11761880_at) / RFU 11764098_at / Fold change /veh 11764098_at / RFU SAMD14 (11745864_x_at) / Fold change /veh SAMD14 (11745864_x_at) / RFU NPB (11741838_a_at) / Fold change /veh NPB (11741838_a_at) / RFU TMPRSS6 (11731388_a_at) / Fold change /veh TMPRSS6 (11731388_a_at) / RFU KRTAP10-2 (11738614_at) / Fold change /veh KRTAP10-2 (11738614_at) / RFU ARHGAP8 /// PRR5-ARHGAP8 (11727945_x_at) / Fold change /veh ARHGAP8 /// PRR5-ARHGAP8 (11727945_x_at) / RFU KRTAP5-7 /// NADSYN1 (11734609_at) / Fold change /veh KRTAP5-7 /// NADSYN1 (11734609_at) / RFU RASL12 (11751679_a_at) / Fold change /veh RASL12 (11751679_a_at) / RFU CDKN2B (11736163_a_at) / Fold change /veh CDKN2B (11736163_a_at) / RFU PRF1 (11729649_at) / Fold change /veh PRF1 (11729649_at) / RFU, ZNF638 /// ZNF638-IT1 / Fold change vs veh, ZNF638 /// ZNF638-IT1 / RFU, PANK3 / Fold change vs veh, PANK3 / RFU, SH3YL1 / Fold change vs veh, SH3YL1 / RFU, ZEB2 / Fold change vs veh, ZEB2 / RFU, NRIP1 / Fold change vs veh, NRIP1 / RFU, PTTG1IP / Fold change vs veh, PTTG1IP / RFU, CAPN2 / Fold change vs veh, CAPN2 / RFU, MED14 / Fold change vs veh, MED14 / RFU, SNORA58 / Fold change vs veh, SNORA58 / RFU, C1orf63 / Fold change vs veh, C1orf63 / RFU, LRRFIP1 / Fold change vs veh, LRRFIP1 / RFU, NDUFAF7 / Fold change vs veh, NDUFAF7 / RFU, SLC12A2 / Fold change vs veh, SLC12A2 / RFU, IBTK / Fold change vs veh, IBTK / RFU, ESF1 / Fold change vs veh, ESF1 / Fold change vs veh, TMEM50B / RFU, TAOK1 / Fold change vs veh, TAOK1 / RFU, ACBD3 / Fold change vs veh, ACBD3 / RFU, TMA16 / Fold change vs veh, TMA16 / RFU, RWDD3 / Fold change vs veh, RWDD3 / RFU, BCAT1 / Fold change vs veh, BCAT1 / RFU, EDEM3 / Fold change vs veh, EDEM3 / RFU, TMEM33 / Fold change vs veh, TMEM33 / RFU, WDR75 / Fold change vs veh, WDR75 / RFU, AHCTF1 / Fold change vs veh, AHCTF1 / RFU, TFRC / Fold change vs veh, TFRC / RFU, ZDHHC17 / Fold change vs veh, ZDHHC17 / RFU, NOM1 / Fold change vs veh, NOM1 / RFU, ARL8B / Fold change vs veh, ARL8B / RFU, ZBTB11 / Fold change vs veh, ZBTB11 / RFU, TAMM41 / Fold change vs veh, TAMM41 / RFU, KIAA1704 /// LOC100996395 / Fold change vs veh, KIAA1704 /// LOC100996395 / RFU, ING1 / Fold change vs veh, ING1 / RFU, TRMT61B / Fold change vs veh, TRMT61B / RFU, FUBP3 / Fold change vs veh, FUBP3 / RFU, TP53 / Fold change vs veh, TP53 / RFU, TNKS2 / Fold change vs veh, TNKS2 / RFU, ZFP14 / Fold change vs veh, ZFP14 / RFU, ACTR2 / Fold change vs veh, ACTR2 / RFU, PPP3R1 / Fold change vs veh, PPP3R1 / RFU, PIK3R1 / Fold change vs veh, PIK3R1 / RFU, HNRNPA1 / Fold change vs veh, HNRNPA1 / RFU, RNF170 / Fold change vs veh, RNF170 / RFU, ZNF28 / Fold change vs veh, ZNF28 / RFU, RNGTT / Fold change vs veh, RNGTT / RFU, OGT / Fold change vs veh, OGT / RFU, BRD1 / Fold change vs veh, BRD1 / RFU, MARS / Fold change vs veh, MARS / RFU, ZNF655 / Fold change vs veh, ZNF655 / RFU, FAHD1 / Fold change vs veh, FAHD1 / RFU, BDP1 / Fold change vs veh, BDP1 / RFU, LRRCC1 / Fold change vs veh, LRRCC1 / RFU, ARID1A / Fold change vs veh, ARID1A / RFU, ZNF146 / Fold change vs veh, ZNF146 / RFU, ZNF330 / Fold change vs veh, ZNF330 / RFU, GPN3 / Fold change vs veh, GPN3 / RFU, C9orf123 / Fold change vs veh, C9orf123 / RFU, N4BP2L2 / Fold change vs veh, N4BP2L2 / RFU, ARFIP1 / Fold change vs veh, ARFIP1 / RFU, FAM179B / Fold change vs veh, FAM179B / RFU, BCL10 / Fold change vs veh, BCL10 / RFU, UHRF1BP1L / Fold change vs veh, UHRF1BP1L / RFU, BET1 / Fold change vs veh, BET1 / RFU, CNOT2 / Fold change vs veh, CNOT2 / RFU, ZNF268 / Fold change vs veh, ZNF268 / Fold change vs veh, ZNF507 / RFU, DGCR2 / Fold change vs veh, DGCR2 / RFU, WDSUB1 / Fold change vs veh, WDSUB1 / Fold change vs veh, HSP90B1 /// MIR3652 / RFU, ADSS / Fold change vs veh, ADSS / RFU, GK / Fold change vs veh, GK / RFU, ZNF148 / Fold change vs veh, ZNF148 / RFU, TAF9 / Fold change vs veh, TAF9 / RFU, SLC1A5 / Fold change vs veh, SLC1A5 / RFU, SLMO2 / Fold change vs veh, SLMO2 / RFU, ABCC4 / Fold change vs veh, ABCC4 / RFU, LOC101060439 /// RAP1B / Fold change vs veh, LOC101060439 /// RAP1B / RFU, RFX7 / Fold change vs veh, RFX7 / RFU, GTPBP10 / Fold change vs veh, GTPBP10 / RFU, CNEP1R1 / Fold change vs veh, CNEP1R1 / RFU, BIVM-ERCC5 /// ERCC5 / Fold change vs veh, BIVM-ERCC5 /// ERCC5 / RFU, ILF3 / Fold change vs veh, ILF3 / RFU 11762660_at / Fold change /veh 11762660_at / RFU VCAN (11757783_s_at) / Fold change /veh VCAN (11757783_s_at) / RFU DDX43 (11728927_at) / Fold change /veh DDX43 (11728927_at) / RFU KRT8 (11758188_x_at) / Fold change /veh KRT8 (11758188_x_at) / RFU NKD1 (11759106_at) / Fold change /veh NKD1 (11759106_at) / RFU SRD5A1 (11742802_a_at) / Fold change /veh SRD5A1 (11742802_a_at) / RFU TPSAB1 /// TPSB2 (11721975_s_at) / Fold change /veh TPSAB1 /// TPSB2 (11721975_s_at) / RFU GSTM3 (11746129_a_at) / Fold change /veh GSTM3 (11746129_a_at) / RFU IL23R (11737362_x_at) / Fold change /veh IL23R (11737362_x_at) / RFU TMEM51 (11727254_a_at) / Fold change /veh TMEM51 (11727254_a_at) / RFU PIWIL2 (11732686_x_at) / Fold change /veh PIWIL2 (11732686_x_at) / RFU ORM1 (11744905_x_at) / Fold change /veh ORM1 (11744905_x_at) / RFU CCDC152 (11743942_at) / Fold change /veh CCDC152 (11743942_at) / RFU ECM1 (11717891_a_at) / Fold change /veh ECM1 (11717891_a_at) / RFU IL23R (11748794_a_at) / Fold change /veh IL23R (11748794_a_at) / RFU TNFAIP8L3 (11732012_x_at) / Fold change /veh TNFAIP8L3 (11732012_x_at) / RFU MBOAT4 (11741988_at) / Fold change /veh MBOAT4 (11741988_at) / RFU 11764193_at / Fold change /veh 11764193_at / RFU TMEM53 (11763286_at) / Fold change /veh TMEM53 (11763286_at) / RFU MAGEB2 (11727129_at) / Fold change /veh MAGEB2 (11727129_at) / RFU TMEM200A (11744735_a_at) / Fold change /veh TMEM200A (11744735_a_at) / RFU CCDC152 (11751479_a_at) / Fold change /veh CCDC152 (11751479_a_at) / RFU FAM211A (11726209_a_at) / Fold change /veh FAM211A (11726209_a_at) / RFU RGS16 (11746705_a_at) / Fold change /veh RGS16 (11746705_a_at) / RFU VCAN (11755009_s_at) / Fold change /veh VCAN (11755009_s_at) / RFU RHOB (11743442_s_at) / Fold change /veh RHOB (11743442_s_at) / RFU RGS16 (11720943_a_at) / Fold change /veh RGS16 (11720943_a_at) / RFU RGS16 (11720944_at) / Fold change /veh RGS16 (11720944_at) / RFU, VPS4B / Fold change vs veh, VPS4B / RFU, CREB1 / Fold change vs veh, CREB1 / RFU, DNAJC13 / Fold change vs veh, DNAJC13 / RFU, GNAQ / Fold change vs veh, GNAQ / RFU, CDK5R1 / Fold change vs veh, CDK5R1 / RFU, ZRANB3 / Fold change vs veh, ZRANB3 / RFU, CUL4A / Fold change vs veh, CUL4A / RFU, CCNY / Fold change vs veh, CCNY / RFU, UFL1 / Fold change vs veh, UFL1 / RFU, COG3 / Fold change vs veh, COG3 / RFU, DIAPH2 / Fold change vs veh, DIAPH2 / RFU, SKA2 / Fold change vs veh, SKA2 / RFU, AFF3 / Fold change vs veh, AFF3 / RFU, LMF1 / Fold change vs veh, LMF1 / RFU, IPO11 / Fold change vs veh, IPO11 / RFU, DFFB / Fold change vs veh, DFFB / RFU, FOXP1 / Fold change vs veh, FOXP1 / RFU, CARD8 / Fold change vs veh, CARD8 / RFU, STRN3 / Fold change vs veh, STRN3 / RFU, ADK / Fold change vs veh, ADK / RFU, RASSF2 / Fold change vs veh, RASSF2 / RFU, WIPF1 / Fold change vs veh, WIPF1 / RFU, LARP1B / Fold change vs veh, LARP1B / RFU, RASA1 / Fold change vs veh, RASA1 / RFU, RB1 / Fold change vs veh, RB1 / RFU, PPFIA1 / Fold change vs veh, PPFIA1 / RFU, MAT2A / Fold change vs veh, MAT2A / RFU, CCT5 / Fold change vs veh, CCT5 / RFU, WDR92 / Fold change vs veh, WDR92 / RFU, CUX1 / Fold change vs veh, CUX1 / RFU, TTC7A / Fold change vs veh, TTC7A / RFU, TMEM135 / Fold change vs veh, TMEM135 / RFU, DEPTOR / Fold change vs veh, DEPTOR / RFU, CPM / Fold change vs veh, CPM / RFU, DNAJB6 / Fold change vs veh, DNAJB6 / RFU, CACNA2D3 / Fold change vs veh, CACNA2D3 / RFU, DTX4 / Fold change vs veh, DTX4 / RFU, TFCP2 / Fold change vs veh, TFCP2 / RFU, GMCL1 /// GMCL1P1 / Fold change vs veh, GMCL1 /// GMCL1P1 / RFU, AEBP2 / Fold change vs veh, AEBP2 / RFU, SNHG1 /// SNORD22 /// SNORD25 /// SNORD26 /// SNORD27 /// SNORD28 /// SNORD29 /// SNORD31 / Fold change vs veh, SNHG1 /// SNORD22 /// SNORD25 /// SNORD26 /// SNORD27 /// SNORD28 /// SNORD29 /// SNORD31 / Fold change (Aza/veh), C12orf56 (ProbeSet 11735607_a_at) / Fold change (ACY-1035/veh), C12orf56 (ProbeSet 11735607_a_at) / Fold change (Aza/veh), FGFR1OP (ProbeSet 11751329_s_at) / Fold change (ACY-1035/veh), FGFR1OP (ProbeSet 11751329_s_at) / Fold change (Aza/veh), VPS36 (ProbeSet 11739960_a_at) / Fold change (ACY-1035/veh), VPS36 (ProbeSet 11739960_a_at) / RFU SYPL1 (11715823_x_at) / Fold change /veh SYPL1 (11715823_x_at) / RFU IGFBP7 (11715501_s_at) / Fold change /veh IGFBP7 (11715501_s_at) / RFU REEP3 (11722064_at) / Fold change /veh REEP3 (11722064_at) / RFU IGLL1 (11728026_x_at) / Fold change /veh IGLL1 (11728026_x_at): dose or concentration left out as unconfirmed.

On to `Nc1ncn([C@@H]2O[C@H](CO)[C@@H](O)[C@H]2O)c(=O)n1` [azacitidine], for which the “RFU, GNAQ” value was found to be 765.32 RFU.
